Test results reported in ChEMBL document CHEMBL4808203, “Angiokinase inhibition of VEGFR-2, PDGFR and FGFR and cell growth inhibition in lung cancer: Design, synthesis, biological evaluation and molecular docking of novel azaheterocyclic coumarin derivatives” (Bioorg Med Chem Lett, 2021).

What was measured:
A549 [1] = assay: Cytotoxicity against human A549 cells assessed as cell viability measured by MTT assay; format: functional, cell-based
WI-38 = assay: Cytotoxicity against human WI-38 cells assessed as cell viability measured by MTT assay; format: ADME, cell-based
[2] = target: Platelet-derived growth factor receptor beta (Homo sapiens, UniProt P09619); assay: Inhibition of PDGFRbeta (unknown origin)
Chain of Platelet-derived growth factor receptor beta (P09619 whole entry): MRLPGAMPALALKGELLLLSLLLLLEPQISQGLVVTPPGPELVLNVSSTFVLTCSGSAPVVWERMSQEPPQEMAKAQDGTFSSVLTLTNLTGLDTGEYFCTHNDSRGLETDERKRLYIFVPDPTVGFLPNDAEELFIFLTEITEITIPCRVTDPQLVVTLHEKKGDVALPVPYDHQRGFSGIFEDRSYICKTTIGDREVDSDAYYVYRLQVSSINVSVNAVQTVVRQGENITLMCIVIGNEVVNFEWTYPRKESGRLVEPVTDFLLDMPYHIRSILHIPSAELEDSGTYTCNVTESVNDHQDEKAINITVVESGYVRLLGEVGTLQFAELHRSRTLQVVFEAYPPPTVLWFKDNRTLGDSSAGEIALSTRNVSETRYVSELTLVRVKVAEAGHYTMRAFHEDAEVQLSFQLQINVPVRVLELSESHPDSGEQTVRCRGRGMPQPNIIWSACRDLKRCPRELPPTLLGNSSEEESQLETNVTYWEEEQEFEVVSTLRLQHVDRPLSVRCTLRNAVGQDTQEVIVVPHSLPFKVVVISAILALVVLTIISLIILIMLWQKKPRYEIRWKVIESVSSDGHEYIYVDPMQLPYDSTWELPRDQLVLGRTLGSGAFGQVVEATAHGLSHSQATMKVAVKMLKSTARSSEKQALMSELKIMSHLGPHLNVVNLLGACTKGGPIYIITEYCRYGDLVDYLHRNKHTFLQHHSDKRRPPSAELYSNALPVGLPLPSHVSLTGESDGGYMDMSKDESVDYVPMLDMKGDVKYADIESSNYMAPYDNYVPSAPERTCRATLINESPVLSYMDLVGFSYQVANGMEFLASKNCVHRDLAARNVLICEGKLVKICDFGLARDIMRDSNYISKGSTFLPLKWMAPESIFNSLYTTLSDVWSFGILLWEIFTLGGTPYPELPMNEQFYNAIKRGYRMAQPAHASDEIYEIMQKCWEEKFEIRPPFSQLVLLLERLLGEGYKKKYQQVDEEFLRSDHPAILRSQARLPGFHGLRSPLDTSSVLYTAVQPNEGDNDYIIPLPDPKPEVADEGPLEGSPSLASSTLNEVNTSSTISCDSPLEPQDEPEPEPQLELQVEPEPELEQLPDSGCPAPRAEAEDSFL

A549 [3] = assay: Cell cycle arrest in human A549 cells assessed as accumulation at S phase measured after 24 hrs (reference value: 36.58%); format: functional
A549 [4] = assay: Cell cycle arrest in human A549 cells assessed as accumulation at pre-G1 phase measured after 24 hrs (reference value: 3.83%); format: functional
A549 [5] = assay: Cell cycle arrest in human A549 cells assessed as accumulation at G2/M phase measured after 24 hrs (reference value: 28.28%); format: functional
[6] = target: Vascular endothelial growth factor receptor 2 (Homo sapiens, UniProt P35968); assay: Inhibition of VEGFR2 (unknown origin)
Chain of Vascular endothelial growth factor receptor 2 (P35968 whole entry): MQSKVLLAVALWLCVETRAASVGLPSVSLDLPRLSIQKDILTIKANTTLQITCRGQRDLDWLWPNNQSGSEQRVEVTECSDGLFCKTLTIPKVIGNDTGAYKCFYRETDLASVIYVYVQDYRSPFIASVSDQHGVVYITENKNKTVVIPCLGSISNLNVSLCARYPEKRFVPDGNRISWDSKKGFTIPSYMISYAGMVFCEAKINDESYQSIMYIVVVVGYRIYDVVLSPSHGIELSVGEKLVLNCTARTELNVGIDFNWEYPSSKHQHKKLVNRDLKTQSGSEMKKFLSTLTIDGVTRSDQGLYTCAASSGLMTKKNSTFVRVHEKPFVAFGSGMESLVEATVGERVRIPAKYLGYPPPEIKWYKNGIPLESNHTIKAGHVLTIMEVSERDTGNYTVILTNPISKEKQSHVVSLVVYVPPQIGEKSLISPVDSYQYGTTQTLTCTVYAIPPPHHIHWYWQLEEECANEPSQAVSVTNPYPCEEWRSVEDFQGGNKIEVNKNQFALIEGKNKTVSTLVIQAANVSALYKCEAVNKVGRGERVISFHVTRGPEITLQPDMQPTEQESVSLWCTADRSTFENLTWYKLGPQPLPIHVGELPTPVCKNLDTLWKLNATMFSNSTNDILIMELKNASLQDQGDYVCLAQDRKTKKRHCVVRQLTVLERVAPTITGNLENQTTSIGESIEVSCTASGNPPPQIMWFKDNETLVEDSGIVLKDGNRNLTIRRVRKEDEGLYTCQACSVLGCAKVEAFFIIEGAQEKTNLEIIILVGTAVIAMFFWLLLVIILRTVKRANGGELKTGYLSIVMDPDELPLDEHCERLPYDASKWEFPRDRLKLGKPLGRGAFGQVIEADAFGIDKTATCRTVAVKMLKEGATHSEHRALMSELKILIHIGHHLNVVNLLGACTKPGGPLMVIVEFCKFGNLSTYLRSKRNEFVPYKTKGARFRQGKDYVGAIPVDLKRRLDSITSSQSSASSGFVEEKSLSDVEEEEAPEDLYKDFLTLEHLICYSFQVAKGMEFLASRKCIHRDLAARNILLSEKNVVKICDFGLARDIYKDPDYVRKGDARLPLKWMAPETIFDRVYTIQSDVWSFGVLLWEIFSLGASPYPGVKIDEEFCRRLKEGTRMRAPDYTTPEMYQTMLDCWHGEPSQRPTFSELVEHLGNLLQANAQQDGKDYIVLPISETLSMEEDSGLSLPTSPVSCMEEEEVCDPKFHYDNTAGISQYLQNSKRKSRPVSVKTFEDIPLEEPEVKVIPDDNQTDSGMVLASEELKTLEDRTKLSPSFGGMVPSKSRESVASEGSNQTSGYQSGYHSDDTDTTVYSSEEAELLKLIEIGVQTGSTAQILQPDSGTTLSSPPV

A549 [7] = assay: Induction of apoptosis in human A549 cells assessed as necrotic cells measured after 24 hrs by Annexin-V-FITC/propidium iodide staining based assay (reference value: 1.29%); format: functional
[8] = target: Epidermal growth factor receptor (Homo sapiens, UniProt P00533); assay: Inhibition of EGFR (unknown origin)
Chain of Epidermal growth factor receptor (P00533 whole entry): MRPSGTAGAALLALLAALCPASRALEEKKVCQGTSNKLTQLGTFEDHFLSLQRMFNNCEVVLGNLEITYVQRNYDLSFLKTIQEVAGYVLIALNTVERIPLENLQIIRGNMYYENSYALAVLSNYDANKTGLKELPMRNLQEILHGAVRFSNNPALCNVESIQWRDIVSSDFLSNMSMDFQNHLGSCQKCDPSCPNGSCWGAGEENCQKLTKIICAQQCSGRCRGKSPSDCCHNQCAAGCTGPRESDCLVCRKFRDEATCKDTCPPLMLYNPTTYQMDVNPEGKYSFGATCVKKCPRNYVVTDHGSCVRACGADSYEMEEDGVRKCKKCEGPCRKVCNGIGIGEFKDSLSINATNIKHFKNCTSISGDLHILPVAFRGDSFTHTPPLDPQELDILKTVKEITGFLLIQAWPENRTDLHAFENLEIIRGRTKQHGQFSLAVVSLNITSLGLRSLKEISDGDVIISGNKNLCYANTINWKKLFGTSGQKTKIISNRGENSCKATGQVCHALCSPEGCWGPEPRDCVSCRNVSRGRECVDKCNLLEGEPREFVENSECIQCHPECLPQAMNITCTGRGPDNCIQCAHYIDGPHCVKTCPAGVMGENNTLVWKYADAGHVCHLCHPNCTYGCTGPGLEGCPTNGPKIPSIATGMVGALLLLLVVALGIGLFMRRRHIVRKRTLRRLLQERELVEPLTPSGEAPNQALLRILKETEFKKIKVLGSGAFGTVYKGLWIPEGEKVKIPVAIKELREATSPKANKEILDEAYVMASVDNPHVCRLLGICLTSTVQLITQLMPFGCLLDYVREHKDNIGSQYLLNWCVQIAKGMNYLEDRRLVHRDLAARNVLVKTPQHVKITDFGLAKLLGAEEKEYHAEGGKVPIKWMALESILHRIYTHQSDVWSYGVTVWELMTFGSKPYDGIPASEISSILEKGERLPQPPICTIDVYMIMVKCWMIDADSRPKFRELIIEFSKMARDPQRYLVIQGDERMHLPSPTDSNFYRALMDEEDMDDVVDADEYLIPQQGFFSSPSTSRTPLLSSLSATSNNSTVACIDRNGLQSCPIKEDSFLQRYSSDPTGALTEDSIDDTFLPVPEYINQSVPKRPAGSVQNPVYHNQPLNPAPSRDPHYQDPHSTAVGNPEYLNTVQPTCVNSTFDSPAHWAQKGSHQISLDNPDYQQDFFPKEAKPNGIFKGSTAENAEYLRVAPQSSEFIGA

A549 [9] = assay: Cell cycle arrest in human A549 cells assessed as accumulation at […] phase measured after 24 hrs (reference value: 42.28%); format: functional
A549 [10] = assay: Induction of apoptosis in human A549 cells assessed as early apoptotic cells measured after 24 hrs by Annexin-V-FITC/propidium iodide staining based assay (reference value: 0.39%); format: functional
A549 [11] = assay: Induction of apoptosis in human A549 cells assessed as late apoptotic cells measured after 24 hrs by Annexin-V-FITC/propidium iodide staining based assay (reference value: 0.15%); format: functional
[12] = target: Fibroblast growth factor receptor (Homo sapiens, UniProt P22607+P11362+P22455+P21802); assay: Inhibition of FGFR (unknown origin); format: protein assay

Structure (SMILES) | IC50 (A549 [1]) | also measured
COc1ccc(-c2cc(-c3c(O)c4ccccc4oc3=O)nc(N)c2C#N)cc1OC | 7.38 µM | –
N#Cc1c(-c2ccc(F)cc2)cc(-c2c(O)c3ccccc3oc2=O)nc1N | 22.3 µM | –
COc1cc(-c2cc(-c3c(O)c4ccccc4oc3=O)nc(S)n2)ccc1O | 36.1 µM | –
O=c1oc2ccccc2c(O)c1-c1cc(-c2ccc(F)cc2)nc(S)n1 | 21.1 µM | –
O=c1oc2ccccc2c(O)c1-c1cc(-c2c(F)cccc2Cl)nc(O)n1 | 5.1 µM | –
N#Cc1c(-c2c(F)cccc2Cl)cc(-c2c(O)c3ccccc3oc2=O)nc1N | 46.3 µM | –
O=c1oc2ccccc2c(O)c1C1=NNC(c2c(F)cccc2Cl)C1 (stereo not given) | 23.5 µM | –
O=c1oc2ccccc2c(O)c1-c1cc(-c2c(F)cccc2Cl)nc(S)n1 | 3.98 µM | IC50 (WI-38): 30.5 µM
O=c1oc2ccccc2c(O)c1-c1cc(-c2ccc(F)cc2)nc(O)n1 | 2.39 µM | IC50 (WI-38): 37.8 µM
O=c1oc2ccccc2c(O)c1C1=NNC(c2ccc(F)cc2)C1 (stereo not given) | 1.05 µM | IC50 (WI-38): 19.9 µM
COc1cccc(-c2cc(-c3c(O)c4ccccc4oc3=O)nc(O)n2)c1 | 5.55 µM | –
COc1cccc(-c2cc(-c3c(O)c4ccccc4oc3=O)nc(S)n2)c1 | 10.2 µM | –
COc1ccc(C2CC(c3c(O)c4ccccc4oc3=O)=NN2)cc1OC (stereo not given) | 7.58 µM | –
COc1ccc(-c2cc(-c3c(O)c4ccccc4oc3=O)nc(O)n2)cc1OC | 21.7 µM | –
COc1cc(-c2cc(-c3c(O)c4ccccc4oc3=O)nc(N)c2C#N)ccc1O | 38.5 µM | –
COc1cc(-c2cc(-c3c(O)c4ccccc4oc3=O)nc(O)n2)ccc1O | 138 µM | –
COc1cc(C2CC(c3c(O)c4ccccc4oc3=O)=NN2)ccc1O (stereo not given) | 8.4 µM | –
COc1cccc(-c2cc(-c3c(O)c4ccccc4oc3=O)nc(N)c2C#N)c1 | 2.38 µM | IC50 [2]: 0.02 µM; IC50 (WI-38): 53.8 µM; Activity (A549 [3]): 58.89%; Activity (A549 [4]): 42.14%; Activity (A549 [5]): 11.32%; IC50 [6]: 0.042 µM; Activity (A549 [7]): 17.12%; IC50 [8]: 0.033 µM; Activity (A549 [9]): 38.55%; Activity (A549 [10]): 4.67%; Activity (A549 [11]): 22.37%; IC50 [12]: 0.021 µM
COc1ccc(-c2cc(-c3c(O)c4ccccc4oc3=O)nc(S)n2)cc1OC | 62.6 µM | –
COc1cccc(C2CC(c3c(O)c4ccccc4oc3=O)=NN2)c1 (stereo not given) | 5.91 µM | –
